Experimental findings from patent US8987514B2, “Compositions and methods for labeling and imaging phospholipids” (President and Fellows of Harvard College, priority 2009, dated 2015) are described below.

The experiment relates to NIH-3T3 cells. The settings on record: for incorporation of azide choline analogs into phospholipids: FIG. 8 legend. The source says: After incorporation into phospholipids, azidophosphatidylcholine molecules can be detected by specifically reacting them with a fluorescent conjugate of dibenzo-cyclooctyne (DBCO), in a strain-promoted azide-alkyne cycloaddition reaction, also known as the copper-free “click” reaction (FIG. 9). In addition, azidophosphatidylcholine molecules can be reacted with a biotin-phosphine, followed by the detection of the biotinylated phospholipid species using labeled streptavidin (FIG. 10).
Cultured NIH-3T3 cells on coverslips were incubated overnight in complete media (DMEM with 10% bovine calf serum) in the absence or presence of 1 mM azidopropyl-choline. The cells were then washed with PBS, fixed with 3.7% formaldehyde in PBS, washed with TBS and then reacted with 40 microM biotin-phosphine in TBS supplemented with 1 mM DTT, for 3 hours at room temperature. The cells were then washed successively with TBS, 0.5 M NaCl, and TBS. Non-specific binding sites were blocked by incubation with blocking buffer (4% bovine serum albumin in TBS), followed by staining with Alexa488-streptavidin (1 microg/mL in blocking buffer). The cells were then washed with TBS (at least 4 washes, at 5 minutes each), mounted and imaged by fluorescence microscopy.
Cultured NIH-3T3 cells were transiently transfected with the plasmid pDsRed-Mito (Clontech), which labels mitochondria red. The cells were then incubated overnight in complete media, in the absence or presence of 500 microM azidoethyl-choline. The cells were washed with PBS, fixed with 3.7% formaldehyde in PBS, washed with TBS and then reacted with 20 microM Alexa488-DBCO in TBS, for 30 minutes at room temperature. Unreacted Alexa488-DBCO was removed by washing successively with TBS, 0.5 M NaCl, and TBS. The cells were then imaged by fluorescence microscopy.

With azidoethyl-choline, the “incorporation of azide choline analogs into phospholipids” value is reported as “efficiently incorporated into phospholipids in vivo”. Also, the “subcellular distribution of azidoethylcholine-labeled phospholipids” value (NIH-3T3 cells, 500 microM overnight, DsRed-Mito marker, Alexa488-DBCO, FIG. 12) is listed as “localize to several populations of cellular membranes, including the mitochondrial membrane”. As to azidopropyl-choline, the “incorporation of azide choline analogs into phospholipids” value was “efficiently incorporated into phospholipids in vivo”.
